Results taken from patent US20260116910A1, “POLYCYCLIC COMPOUNDS AND METHODS THEREOF” (HEPAITECH (BEIJING) BIOPHARMA TECHNOLOGY CO., LTD., priority 2021, published 2026).

What was measured:
[1] = molecular target: MRGPRX4 (Homo sapiens, UniProt Q96LA9); experiment: MRGPRX4 activation, Fluo-8 Ca2+ FLIPR assay in HEK293T cells stably expressing MRGPRX4; type: cell-based; set-up: key to MRGPRX4 activation, Average / MRGPRX4 activation, Ave.: fluorescence change dF/F0; settings: for EC50: MRGPRX4 activation, Ca2+ fluorescence, no activation in tested range reported as III, read-out: Activity (EC50 μM)
Method: In some embodiments, cells were cultured in poly-D-Lys coated blacked walled, clear-bottom 96-well microplates. HEK293T cells stably expressing MRGPRX4 were cultured in DMEM medium supplemented with 10% FBS and 1% PS, at 37° C. in a humidified atmosphere with 5% CO2. Cells were detached by centrifuging (1000 rpm, 3 min). The pellet was re-suspended in medium, and cell density was adjusted to about 1×10^6 cells/mL. 100 μL suspension was seeded to each well of a microplates (cell plate). Cells in the microplates were cultured overnight. In the following day, cells were grown to higher than 95% density in each well.
Ca^2+ fluorescent dye loading: Fluo-8 AM (Screen Quest Fluo-8 AM Calcium Assay Kit, AAT Bioquest, cat. #: 21083) was diluted in HHBS buffer and adjusted to 2 μM (dye buffer). Medium in each well was changed into 50 μL dye buffer carefully. After incubation for 40-60 min under room temperature, the dye buffer was changed into 50 μL HHBS buffer.
The concentration of solution should be determined according to the protocol settings and experimental needs (e.g., Log[M]=−4, −5, −6, −7, −8, and −9). Prepare 2× serial dilution series of compounds (at least 75 μL per well).
A fluorescent signal baseline was measured using FLIPR®Tetra for 30 s. Then 50 μL of the chemical solution would be added to the cell plate. The fluorescent signal would be measured for another 150 s.
Activity of each compound was calculated by the fluorescence change (dF/F0). Curves were fitted to obtain EC50 values. In some embodiments, at least 3 repeats were performed to obtain the average values. For assessment of a compound, gradient diluted solutions of different concentrations were used to treat cells and corresponding responses were used to fit sigmoid function and to derive EC50 in Origin. In some embodiments, assessed concentrations were or included about 10^−4, 10^−4.5, 10^−5, 10^−5.5, 10^−6, 10^−6.5, 10^−7, 10^−8, and/or 10^−9 M; for example, in many instances, assessed concentrations included about 10^−5, 10^−6, 10^−7 and 10^−8 M. In some embodiments, assessed concentrations were about 10^−4, 10^−4.5, 10^−5, 10^−5.5, 10^−6, 10^−7, 10^−8, and 10^−9 M. In some embodiments, assessed concentrations were about 10^−4, 10^−5, 10^−6, 10^−7, 10^−8, and 10^−9 M. In some embodiments, assessed concentrations were about 10^−4, 10^−4.5, 10^−5, 10^−5.5, 10^−6, and 10^−7 M. In some embodiments, assessed concentrations were about 2000000, 1000000, 500000, 250000, 125000, 62500, 31250, 15625, 7813, 3906 nM. […] In some embodiments, assessed concentrations were about 30000, 10000, 3333, 1111, 370, 123, 41, 14, 4.6, 1.5 nM.

[2] = molecular target: T1, human FXR (NR1H4) (Homo sapiens, UniProt Q96RI1); experiment: Human FXR (NR1H4) agonist assessment, FXRE-NanoLuc reporter in HEK293T cells; type: cell-based; settings: FXR activation, HEK293T FXRE-NanoLuc reporter, 24 hr; for EC50: read-out: EC50
T1 sequence (Q96RI1 1-476 isoform Q96RI1-1): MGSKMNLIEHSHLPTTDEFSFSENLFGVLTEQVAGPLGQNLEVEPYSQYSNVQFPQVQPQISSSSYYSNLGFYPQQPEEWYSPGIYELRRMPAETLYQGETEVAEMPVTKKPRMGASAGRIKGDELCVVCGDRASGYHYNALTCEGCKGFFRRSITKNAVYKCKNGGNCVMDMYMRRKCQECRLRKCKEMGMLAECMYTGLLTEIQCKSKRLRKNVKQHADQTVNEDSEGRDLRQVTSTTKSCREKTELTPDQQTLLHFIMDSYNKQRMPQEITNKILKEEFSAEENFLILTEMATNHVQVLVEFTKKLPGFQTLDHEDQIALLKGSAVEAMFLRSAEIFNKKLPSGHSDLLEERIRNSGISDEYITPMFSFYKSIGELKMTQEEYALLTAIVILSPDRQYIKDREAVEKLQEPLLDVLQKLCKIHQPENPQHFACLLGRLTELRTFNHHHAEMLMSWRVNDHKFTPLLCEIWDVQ
Method: As those skilled in the art appreciate, various technologies are available for assessment of FXR activation in accordance with the present disclosure. […] Human FXR (NR1H4) agonist assessment (see, e.g., Yu et al. eLife 2019; 8: e48431): HEK293T cells stably expressing human FXR and containing FXR response element (FXRE)-NanoLuc reporter were cultured in DMEM medium supplemented with 10% FBS and 1% PS, at 37° C. in a humidified atmosphere with 5% CO2. Cells were detached by centrifuging (1000 rpm, 3 min). The pellet was re-suspended in medium, and cell density was adjusted to about 1×10^6 cells/mL. 100 μL suspension was seeded to each well of a white-walled, clear-bottom 96-well microplates (cell plate). Cells in microplates were cultured overnight.
In the following day, cells were grown to higher than 95% density in each well. Culture medium was replaced, and compounds were added to the wells. 0.01% DMSO (v/v) served as negative control. Plates were incubated at 37° C. in 5% CO2 for 24 hr.
In the following day, a 10 μL aliquot of cell culture medium was removed from each well and combined with 40 μL culture medium plus […] assay buffer (containing 20 mM of the luciferase substrate coelenterazine). After 5 min incubation, luminescence was measured using an EnVision plate reader (PerkinElmer).
In some embodiments, gradient diluted solutions of several concentrations were used to treat cells and corresponding responses were used to fit sigmoid function and to derive EC50 in Origin.

Chain of MRGPRX4 (Q96LA9 whole entry): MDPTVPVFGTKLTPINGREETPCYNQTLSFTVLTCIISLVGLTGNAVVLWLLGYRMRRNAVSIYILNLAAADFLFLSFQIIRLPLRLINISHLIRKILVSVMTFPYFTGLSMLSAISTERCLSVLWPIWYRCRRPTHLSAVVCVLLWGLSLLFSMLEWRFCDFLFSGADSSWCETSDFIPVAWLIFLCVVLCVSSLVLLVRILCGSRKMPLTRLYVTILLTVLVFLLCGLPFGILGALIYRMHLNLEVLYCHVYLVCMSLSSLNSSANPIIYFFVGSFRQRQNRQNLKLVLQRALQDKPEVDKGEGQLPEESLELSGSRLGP

Row | SMILES | MRGPRX4 activation, fluorescence change (dF/F0), Average ([1]; Conc. (Log[M]) −4.5) | EC50 [1] | Efficacy (maximum measured induction of NanoLuc, normalized to CDCA set as 100%) [2] | EC50 [2] | MRGPRX4 activation, fluorescence change (dF/F0), Average ([1]; Conc. (Log[M]) −4) | MRGPRX4 activation, fluorescence change (dF/F0), Average ([1]; Conc. (Log[M]) −5) | MRGPRX4 activation, fluorescence change (dF/F0), Average ([1]; Conc. (Log[M]) −5.5) | MRGPRX4 activation, fluorescence change (dF/F0), Average ([1]; Conc. (Log[M]) −6) | MRGPRX4 activation, fluorescence change (dF/F0), Average ([1]; Conc. (Log[M]) −7) | further results
1 | CC[C@H]1[C@@H](O)[C@@H]2[C@H](CC[C@]3(C)[C@@H]([C@H](C)CCNC(=O)NS(=O)(=O)c4ccc(C(C)(C)C(N)=O)cc4)CC[C@@H]23)[C@@]2(C)CCCC[C@@H]12 [5-16] | 0.020 | > 100 µM | C (100%<efficacy <=300%) | < 1 µM | – | – | – | – | – | MRGPRX4 activation, fluorescence change (dF/F0), Average ([1]; Conc. (Log[M]) −4.0): 0.030; MRGPRX4 activation, fluorescence change (dF/F0), Average ([1]; Conc. (Log[M]) −5.0): 0.010; MRGPRX4 activation, fluorescence change (dF/F0), Average ([1]; Conc. (Log[M]) −5.4): 0.020; MRGPRX4 activation, fluorescence change (dF/F0), Average ([1]; Conc. (Log[M]) −5.9): 0.020; MRGPRX4 activation, fluorescence change (dF/F0), Average ([1]; Conc. (Log[M]) −6.4): 0.013; MRGPRX4 activation, fluorescence change (dF/F0), Average ([1]; Conc. (Log[M]) −6.9): 0.013; MRGPRX4 activation, fluorescence change (dF/F0), Average ([1]; Conc. (Log[M]) −7.3): 0.013; MRGPRX4 activation, fluorescence change (dF/F0), Average ([1]; Conc. (Log[M]) −7.8): 0.013; MRGPRX4 activation, fluorescence change (dF/F0), Average ([1]; Conc. (Log[M]) −8.3): 0.025
2 | CC[C@H]1[C@@H](O)[C@@H]2[C@H](CC[C@]3(C)[C@@H]([C@H](C)CCNC(=O)NS(=O)(=O)c4ccc(C)cc4)CC[C@@H]23)[C@@]2(C)CCCC[C@@H]12 [5-8] | 0.037 | > 100 µM | C (100%<efficacy <=300%) | < 1 µM | 0.073 | 0.023 | 0.017 | 0.020 | 0.023 | –
3 | CC[C@H]1[C@@H](O)[C@@H]2[C@H](CC[C@]3(C)[C@@H]([C@H](C)CCNC(=O)NS(=O)(=O)c4cccs4)CC[C@@H]23)[C@@]2(C)CC[C@H](F)C[C@@H]12 [9-4] | – | > 100 µM | C (100%<efficacy <=300%) | < 1 µM | – | – | – | – | – | MRGPRX4 activation, Average ([1]; E3-9, Conc. (Log[M]) −4.0): −0.003; MRGPRX4 activation, Average ([1]; E3-9, Conc. (Log[M]) −4.5): 0.004; MRGPRX4 activation, Average ([1]; E3-9, Conc. (Log[M]) −5.0): 0.014; MRGPRX4 activation, Average ([1]; E3-9, Conc. (Log[M]) −5.4): 0.019; MRGPRX4 activation, Average ([1]; E3-9, Conc. (Log[M]) −5.9): 0.019; MRGPRX4 activation, Average ([1]; E3-9, Conc. (Log[M]) −6.4): 0.018; MRGPRX4 activation, Average ([1]; E3-9, Conc. (Log[M]) −6.9): 0.019; MRGPRX4 activation, Average ([1]; E3-9, Conc. (Log[M]) −7.3): 0.021; MRGPRX4 activation, Average ([1]; E3-9, Conc. (Log[M]) −7.8): 0.018; MRGPRX4 activation, Average ([1]; E3-9, Conc. (Log[M]) −8.3): 0.019
4 | C[C@H](CC(=O)O)[C@H]1CC[C@H]2[C@@H]3CC[C@@H]4C[C@H](O)CC[C@]4(C)[C@H]3C[C@H](O)[C@]12C [RC-1] | 0.080 | < 50 µM | B (300%<efficacy <=400%) | 1 to 10 µM | 0.329 | −0.029 | −0.019 | −0.015 | −0.010 | MRGPRX4 activation, fluorescence change (dF/F0), Average ([1]; Conc. (Log[M]) −8): −0.003; MRGPRX4 activation, fluorescence change (dF/F0), Average ([1]; Conc. (Log[M]) −9): −0.005
5 | CC[C@H]1[C@@H](O)[C@@H]2[C@H](CC[C@]3(C)[C@@H]([C@H](C)CCNC(=O)C(=O)NS(=O)(=O)c4cc(F)cc(F)c4)CC[C@@H]23)[C@@]2(C)CCCC[C@@H]12 [8-4] | – | > 100 µM | B (300%<efficacy <=400%) | < 1 µM | – | – | – | – | – | MRGPRX4 activation, Ave. ([1]; E3-7, Conc. (Log[M]) −4): −0.041; MRGPRX4 activation, Ave. ([1]; E3-7, Conc. (Log[M]) −4.5): −0.027; MRGPRX4 activation, Ave. ([1]; E3-7, Conc. (Log[M]) −5): −0.014; MRGPRX4 activation, Ave. ([1]; E3-7, Conc. (Log[M]) −5.5): −0.014; MRGPRX4 activation, Ave. ([1]; E3-7, Conc. (Log[M]) −6): 0.000; MRGPRX4 activation, Ave. ([1]; E3-7, Conc. (Log[M]) −7): 0.000
6 | CC(O)CC[C@@H](C)[C@H]1CC[C@H]2[C@@H]3CC[C@@H]4CCCC[C@]4(C)[C@H]3CC[C@]12C (stereo partly drawn) [2-2] | – | > 100 µM | C (100%<efficacy <=300%) | > 10 µM | – | – | – | – | – | –
7 | [2H]C1([2H])CC[C@@]2(C)[C@@H](C1)[C@@H](CC)[C@@H](O)[C@@H]1[C@@H]2CC[C@]2(C)[C@@H]([C@H](C)CCNC(=O)NS(=O)(=O)c3ccc(C(C)(C)CF)cc3)CC[C@@H]12 [12-2] | – | > 100 µM | A (efficacy >400%) | < 1 µM | – | – | – | – | – | MRGPRX4 activation, Ave. ([1]; E3-7, Conc. (Log[M]) −4): 0.000; MRGPRX4 activation, Ave. ([1]; E3-7, Conc. (Log[M]) −4.5): −0.041; MRGPRX4 activation, Ave. ([1]; E3-7, Conc. (Log[M]) −5): −0.041; MRGPRX4 activation, Ave. ([1]; E3-7, Conc. (Log[M]) −5.5): −0.054; MRGPRX4 activation, Ave. ([1]; E3-7, Conc. (Log[M]) −6): −0.041; MRGPRX4 activation, Ave. ([1]; E3-7, Conc. (Log[M]) −7): −0.027
8 | CC[C@H]1[C@@H](O)[C@@H]2[C@H](CC[C@]3(C)[C@@H]([C@H](C)CO)CC[C@@H]23)[C@@]2(C)CCCC[C@@H]12 [compound 73] | 0.042 | > 100 µM | A (efficacy >400%) | 1 to 10 µM | 0.098 | −0.031 | −0.031 | −0.020 | −0.023 | MRGPRX4 activation, fluorescence change (dF/F0), Average ([1]; Conc. (Log[M]) −8): −0.023; MRGPRX4 activation, fluorescence change (dF/F0), Average ([1]; Conc. (Log[M]) −9): −0.014
